How the values were obtained:
[1] = target: T1, recombinant human 17β-HSD1 (Homo sapiens, UniProt P14061); test: Inhibition of recombinant human 17β-HSD1 (estrone to estradiol conversion, HPLC/radioactivity); type: biochemical; details: compound 100 nM; 30 nM estrone, 1 mM NADPH, 30 min RT
T1 construct: made in house; host or cells: Sd9 (Sf9) insect cells, baculovirus (Bac to Bac Expression System)
T1 sequence (P14061 1-328): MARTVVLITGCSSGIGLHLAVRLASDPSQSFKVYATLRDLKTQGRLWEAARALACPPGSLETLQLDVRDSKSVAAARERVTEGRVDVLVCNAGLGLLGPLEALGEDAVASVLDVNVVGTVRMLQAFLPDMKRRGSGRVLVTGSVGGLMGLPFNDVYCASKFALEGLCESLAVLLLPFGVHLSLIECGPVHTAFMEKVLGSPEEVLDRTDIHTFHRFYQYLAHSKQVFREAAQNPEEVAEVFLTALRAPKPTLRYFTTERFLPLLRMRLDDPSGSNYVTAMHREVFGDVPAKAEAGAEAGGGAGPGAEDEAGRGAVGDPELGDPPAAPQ
In short: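 Microsomal human 17β-HSD1 from Sf9 baculovirus (1 μg/ml) was incubated 30 min at RT in 20 mM KH2PO4 pH 7.4 with 30 nM ^3H-estrone, 1 mM NADPH and inhibitor at 1 μM or 0.1 μM (1% DMSO). Estrone and estradiol were separated by HPLC with radioactivity detection. % inhibition = 100 − % conversion relative to uninhibited control.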

[2] = system: HSD1 enzyme that is expressed in rabbit placenta tissue; test: Inhibition of E1 to E2 conversion in rabbit placenta tissue homogenate; type: biochemical; details: compound 100 nM, 30 nM estrone, 1 mM β-NADPH, 30 min
In short: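 Rabbit placenta homogenate (20 mM KH2PO4, 1 mM EDTA, pH 7.4) incubated 30 min with 1 mM β-NADPH, 30 nM estrone plus 5 nM [3H]-estrone tracer, and inhibitor at 1 μM or 0.1 μM (1% DMSO). Stopped with TCA; estrone and estradiol resolved by HPLC with scintillation counting; % inhibition = 100 − % conversion relative to uninhibited control.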

SMILES	inhibition at 0.1 µM [1]	Rabbit placenta inhibition % @100 nM [2]
C[C@]12CCC3c4cccc(F)c4CCC3C1[C@H](CCC(=O)Nc1cnccn1)c1c[nH]nc12 (stereo partly drawn) [Compound 51, 3-((8aS,12S)-3-fluoro-8a-methyl-1,2,6b,7,8,8a,10,12,12a,12b-decahydronaphtho[2′,1′:4,5]indeno[1,2-c]pyrazol-12-yl)-N-(pyrazin-2-yl)propanamide]	90%	59%
C[C@]12CCC3c4ccccc4CCC3C1[C@H](CCC(=O)Nc1cc(F)ccn1)c1c[nH]nc12 (stereo partly drawn) [Compound 162, N-(4-fluoropyridin-2-yl)-3-((8aS,12S)-8a-methyl-1,2,6b,7,8,8a,10,12,12a,12b-decahydronaphtho[2′,1′:4,5]indeno[1,2-c]pyrazol-12-yl)propanamide]	91%	44%
COc1ccnc(NC(=O)CC[C@@H]2c3c[nH]nc3[C@@]3(C)CCC4c5ccc(F)cc5CCC4C23)c1 (stereo partly drawn) [Compound 90, 3-((8aS,12S)-4-fluoro-8a-methyl-1,2,6b,7,8,8a,10,12,12a,12b-decahydronaphtho[2′,1′:4,5]indeno[1,2-c]pyrazol-12-yl)-N-(4-methoxypyridin-2-yl)propanamide]	70%	30%
CC(C)c1ccc(NC(=O)CC[C@@H]2c3c[nH]nc3[C@@]3(C)CCC4c5ccccc5CCC4C23)nc1 (stereo partly drawn) [Compound 138, N-(5-isopropylpyridin-2-yl)-3-((8aS,12S)-8a-methyl-1,2,6b,7,8,8a,10,12,12a,12b-decahydronaphtho[2′,1′:4,5]indeno[1,2-c]pyrazol-12-yl)propanamide]	94%	18%
CCN(CC)C(=O)CC[C@@H]1c2c[nH]nc2[C@@]2(C)CCC3c4cccc(F)c4CCC3C12 (stereo partly drawn) [Compound 216, N,N-diethyl-3-((8aS,12S)-3-fluoro-8a-methyl-1,2,6b,7,8,8a,10,12,12a,12b-decahydronaphtho[2′,1′:4,5]indeno[1,2-c]pyrazol-12-yl)propanamide]	93%	10%
CN1CCN(c2ccc(NC(=O)CC[C@@H]3c4c[nH]nc4[C@@]4(C)CCC5c6cccc(F)c6CCC5C34)nc2)CC1 (stereo partly drawn) [Compound 42, 3-((8aS,12S)-3-fluoro-8a-methyl-1,2,6b,7,8,8a,10,12,12a,12b-decahydronaphtho[2′,1′:4,5]indeno[1,2-c]pyrazol-12-yl)-N-(5-(4-methylpiperazin-1-yl)pyridin-2-yl)propanamide]	91%	82%
C[C@]12CCC3c4cccc(F)c4CCC3C1[C@H](CCC(=O)Nc1ccccn1)c1c[nH]nc12 (stereo partly drawn) [Compound 18, 3-((8aS,12S)-3-fluoro-8a-methyl-1,2,6b,7,8,8a,10,12,12a,12b-decahydronaphtho[2′,1′:4,5]indeno[1,2-c]pyrazol-12-yl)-N-(pyridin-2-yl)propanamide]	91%	44%
C[C@]12CCC3c4ccc(F)cc4CCC3C1[C@H](CCC(=O)Nc1ccc(N3CCOCC3)cn1)c1c[nH]nc12 (stereo partly drawn) [Compound 96, 3-((8aS,12S)-4-fluoro-8a-methyl-1,2,6b,7,8,8a,10,12,12a,12b-decahydronaphtho[2′,1′:4,5]indeno[1,2-c]pyrazol-12-yl)-N-(5-morpholinopyridin-2-yl)propanamide]	74%	42%
C[C@]12CCC3c4ccc(F)cc4CCC3C1[C@H](CCC(=O)Nc1ccc(F)cn1)c1c[nH]nc12 (stereo partly drawn) [Compound 99, 3-((8aS,12S)-4-fluoro-8a-methyl-1,2,6b,7,8,8a,10,12,12a,12b-decahydronaphtho[2′,1′:4,5]indeno[1,2-c]pyrazol-12-yl)-N-(5-fluoropyridin-2-yl)propanamide]	84%	10%
C[C@]12CCC3c4ccccc4CCC3C1[C@H](CCC(=O)Nc1ccc(F)cn1)c1c[nH]nc12 (stereo partly drawn) [Compound 159, N-(5-fluoropyridin-2-yl)-3-((8aS,12S)-8a-methyl-1,2,6b,7,8,8a,10,12,12a,12b-decahydronaphtho[2′,1′:4,5]indeno[1,2-c]pyrazol-12-yl)propanamide]	90%	23%
CC(C)c1ccc(NC(=O)CC[C@@H]2c3c[nH]nc3[C@@]3(C)CCC4c5cccc(F)c5CCC4C23)nc1 (stereo partly drawn) [Compound 36, 3-((8aS,12S)-3-fluoro-8a-methyl-1,2,6b,7,8,8a,10,12,12a,12b-decahydronaphtho[2′,1′:4,5]indeno[1,2-c]pyrazol-12-yl)-N-(5-isopropylpyridin-2-yl)propanamide]	100%	55%
C[C@]12CCC3c4cccc(F)c4CCC3C1[C@H](CCC(=O)N1CCNC(=O)C1)c1c[nH]nc12 (stereo partly drawn) [Compound 24, 4-(3-((8aS,12S)-3-fluoro-8a-methyl-1,2,6b,7,8,8a,10,12,12a,12b-decahydronaphtho[2′,1′:4,5]indeno[1,2-c]pyrazol-12-yl)propanoyl)piperazin-2-one]	83%	27%
CN(C)C(=O)c1ccc(NC(=O)CC[C@@H]2c3c[nH]nc3[C@@]3(C)CCC4c5cccc(F)c5CCC4C23)nc1 (stereo partly drawn) [Compound 33, 6-(3-((8aS,12S)-3-fluoro-8a-methyl-1,2,6b,7,8,8a,10,12,12a,12b-decahydronaphtho[2′,1′:4,5]indeno[1,2-c]pyrazol-12-yl)propanamido)-N,N-dimethylnicotinamide]	95%	68%
Cc1ccnc(NC(=O)CC[C@@H]2c3c[nH]nc3[C@@]3(C)CCC4c5ccccc5CCC4C23)c1 (stereo partly drawn) [Compound 168, 3-((8aS,12S)-8a-methyl-1,2,6b,7,8,8a,10,12,12a,12b-decahydronaphtho[2′,1′:4,5]indeno[1,2-c]pyrazol-12-yl)-N-(4-methylpyridin-2-yl)propanamide]	90%	58%
C[C@]12CCC3c4ccc(Cl)cc4CCC3C1[C@H](CCC(=O)Nc1cc3c([nH]c1=O)CCCC3)c1c[nH]nc12 (stereo partly drawn) [Compound 123, 3-((8aS,12S)-4-chloro-8a-methyl-1,2,6b,7,8,8a,10,12,12a,12b-decahydronaphtho[2′,1′:4,5]indeno[1,2-c]pyrazol-12-yl)-N-(2-oxo-1,2,5,6,7,8-hexahydroquinolin-3-yl) propanamide]	87%	17%
COc1ccnc(NC(=O)CC[C@@H]2c3c[nH]nc3[C@@]3(C)CCC4c5cccc(F)c5CCC4C23)c1 (stereo partly drawn) [Compound 48, 3-((8aS,12S)-3-fluoro-8a-methyl-1,2,6b,7,8,8a,10,12,12a,12b-decahydronaphtho[2′,1′:4,5]indeno[1,2-c]pyrazol-12-yl)-N-(4-methoxypyridin-2-yl)propanamide]	91%	57%
C[C@]12CCC3c4cccc(F)c4CCC3C1[C@H](CCC(=O)Nc1ncc(F)cc1F)c1c[nH]nc12 (stereo partly drawn) [Compound 9, N-(3,5-difluoropyridin-2-yl)-3-((8aS,12S)-3-fluoro-8a-methyl-1,2,6b,7,8,8a,10,12,12a,12b-decahydronaphtho[2′,1′:4,5]indeno[1,2-c]pyrazol-12-yl)propanamide]	82%	26%
